Assay results as given in ChEMBL document CHEMBL1151258, “New cytotoxic cembranes from the sea pen Gyrophyllum sibogae” (2004).

Tests used:
Assay type in all cases: functional
Settings in all cases: read-out: ED50 (the source's name)
[1] = tested on: DU-145; assay: Cytotoxicity against human DU145 cells
[2] = Cytotoxicity against human IGROV cells
[3] = tested on: K562; assay: Cytotoxicity against human K562 cells
[4] = tested on: HT-29; assay: Cytotoxicity against human HT-29 cells

C/C1=C/C=C(\C(C)C)C(=O)[C@@H](O)[C@H](C)CCC(=O)[C@H](CO)CCC1
EC50 [1]: 82 nM | EC50 [2]: 90.3 nM | EC50 [3]: 62.7 nM | EC50 [4]: 14.5 nM
